Data as given in EP4721758A1, “NOVEL MEDICINE FOR TREATING OSTEOSARCOMA” (Japanese Foundation For Cancer Research, priority 2023, dated 2024).

How the values were obtained:
[1] = biological target: T1, Mcl-1 (Homo sapiens, UniProt Q07820); settings: cited from earlier work
[2] = test system: osteosarcoma cells; test: Cell viability, combined use of Mcl-1 inhibitor and Bcl-xL inhibitor; format: cell-based
Source text: In this example, AZD5991 or MIK665 was used as an Mcl-1 inhibitor, and A-1331852 was used as a Bcl-xL inhibitor.

[3] = test system: G-292 cells; test: Cell viability, BH3 mimetic drug sensitivity; format: cell-based, human; settings: cells with BCL2L1 amplification, Fig. 4-1
Procedure: (§1) Specifically, four types of osteosarcoma cells (i.e., NOS-10 cells, Sa-xeno-147 cells, G-292 cells, and Sa-xeno-184 cells) were treated with six types of BH3 mimetics (i.e., obatoclax, navitoclax, venetoclax, A-1331852, AZD5991, and MIK665), and the cell viability of the osteosarcoma cells was measured.

[4] = test system: NOS-10 cells; test: Cell viability (CellTiter-Glo); format: cell-based, human; settings: for IC50 value / growth inhibitory effect: IGF-1R inhibitor in combination with Mcl-1 inhibitors such as obatoclax, AZD5991, and MIK665, Fig. 5-1; for IC50 values: in the presence of 40 nM obatoclax, Fig. 4-4
Procedure: In this example, the drug sensitivity of MIK665, an Mcl-1 inhibitor, was evaluated in NOS-10 cells. Various concentrations (i.e., 0, 1, 3, 10, 30, 100, 300, 1000, 3000, 10000, 30000 nM) of MIK665 (TargetMol) were administered, and cell viability was measured using CellTiter-Glo assay reagent 72 hours after drug treatment. As a control, osteosarcoma cells MG-63 cells, without amplification of the copy number of MCL1, were used. Data are shown as MG-63 mean ± SD (n = 3).
as §1
Meanwhile, the combined effect of AZD5991 and 3 µ(micro)M Navitoclax on cell viability of NOS-10 cells was examined. Cell viability was measured using CellTiter-Glo assay reagent 72 hours after drug treatment. Data are shown as mean ± SD (n = 3).
(§2) Specifically, the present inventors investigated the combined effects of 40 nM obatoclax with DOX (Fig. 4-4(E), Fig. 4-5(A)), with CDDP (Fig. 4-4(F), Fig. 4-5(B)), and with MTX (Fig. 4-4(G), Fig. 4-5(C)) on cell viability in NOS-10 cells and Sa-xeno-147 cells. Cell viability was measured for each cell 72 hours after each drug treatment using CellTiter-Glo assay reagent. All data are shown as mean ± SD (n = 3). IC50 values were calculated and the data were graphed using GraphPad Prism.
To identify suitable combination partners of Mcl-1 inhibitors such as obatoclax for osteosarcoma treatment, further drug screening was performed using an in-house library of inhibitors in the presence of obatoclax in osteosarcoma cells. Specifically, the effect of combination of 35 nM obatoclax with an inhibitor out of 94 molecular targeted drugs in the library on cell viability of NOS-10 cells was examined. Cell viability was measured using CellTiter-Glo assay reagent 72 hours after the cells were treated with each combination of drugs. All data are shown as mean ± SD (n = 3). GraphPad Prism was used to calculate IC50 values and graph the data.

[5] = test system: Sa-xeno-147 cells; test: Cell viability (CellTiter-Glo); format: cell-based, human; settings: for cell viability: BH3 mimetic drug sensitivity, Fig. 4-1; for IC50 values: in the presence of 40 nM obatoclax, 72 hours, Fig. 4-5
Procedure: as §1, §2

[6] = test system: Sa-xeno-184 cells; test: Cell viability, BH3 mimetic drug sensitivity; format: cell-based, human; settings: cells with MCL1 amplification, Fig. 4-1
Procedure: as §1

[7] = biological target: T1, Mcl-1; settings: cited from earlier work; remark: listed apart in the source
[8] = biological target: BCL-xL (Homo sapiens, UniProt Q07817); settings: cited from earlier work
Chain of BCL-xL (Q07817 whole entry): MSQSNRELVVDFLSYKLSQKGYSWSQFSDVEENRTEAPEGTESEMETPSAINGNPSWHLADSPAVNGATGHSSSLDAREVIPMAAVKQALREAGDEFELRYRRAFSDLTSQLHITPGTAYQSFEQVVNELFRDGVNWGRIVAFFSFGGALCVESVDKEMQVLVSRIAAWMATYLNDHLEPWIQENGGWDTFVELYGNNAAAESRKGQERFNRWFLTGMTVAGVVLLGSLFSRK

[9] = test system: NOS-10 cells; test: Mouse xenograft model, tumor volume; format: in vivo, SCID beige mice; settings: obatoclax 5 mg/kg, OSI906 25 mg/kg, orally three times a week; MCL1-amplified xenograft; Fig. 6-2 (B)
Procedure: Using obatoclax or AZD5991 as an Mcl-1 inhibitor, the present inventors used mouse xenograft models of osteosarcoma with MCL1-amplified osteosarcoma (NOS-10 cells) and without MCL1-amplified osteosarcoma (Sa-xeno-147 cells) to determine the efficacy of the combination of obatoclax or AZD5991 with OSI906. To prevent side effects such as weight loss, the drugs were administered three times a week at relatively low concentrations (experimental schemes are shown in Figures 5A and 5D). The changes in tumor volume of NOS-10 cells and Sa-xeno-147 cells by treatment of drugs was examined as follows. NOS-10 cells or Sa-xeno-147 cells were subcutaneously inoculated into immunodeficient SCID beige mice (CB17.Cg-PrkdcscidLystbg-J/CrlCrlj, Charles River Laboratories, Inc.) (5-6×10^6 cells/mouse or 1×10^6 cells/mouse) and orally treated three times a week with vehicle (30% PEG400, 0.5% Tween80, 5% propylene glycol in water), with obatoclax (5 mg/kg), with OSI906 (25 mg/kg), or with obatoclax + OSI906 (5 mg/kg and 25 mg/kg, respectively). […] All data are shown as mean ± SD (n = 4, n = 5, or n = 6). *p < 0.05 and **p < 0.01 are determined using the Mann-Whitney U test.

[10] = biological target: BCL-2 (Homo sapiens, UniProt P10415); settings: cited from earlier work
Chain of BCL-2 (P10415 whole entry): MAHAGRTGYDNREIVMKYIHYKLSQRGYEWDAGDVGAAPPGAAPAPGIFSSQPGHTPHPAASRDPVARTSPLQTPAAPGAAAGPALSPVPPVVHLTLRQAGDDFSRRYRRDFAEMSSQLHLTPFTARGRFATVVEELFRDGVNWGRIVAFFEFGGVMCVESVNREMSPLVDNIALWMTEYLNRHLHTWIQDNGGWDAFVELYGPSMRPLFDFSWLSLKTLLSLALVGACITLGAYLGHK

[11] = test system: osteosarcoma cells; test: Inhibitor library drug screening, cell viability (CellTiter-Glo); format: cell-based, human; settings: nine osteosarcoma cell lines and two PDC, 72 hours, heatmap Fig. 1A
Procedure: The nine human osteosarcoma cell lines (MG-63 cells, NY cells, HOS cells, HuO9 cells, HuO-3N1 cells, SJSA-1 cells, NOS-1 cells, NOS-10 cells, and G-292 clone A141B1 (G-292) cells) were purchased from the American Type Culture Collection, the RIKEN BioResource Research Center, or the Japanese Collection of Research Bioresources Cell Bank (JCRC) and used at lower passage numbers.
Specifically, • MG-63 cells, NY cells, and HOS cells were cultured in 96-well plates using MEM (Wako) comprising 10% FBS (CORNING), 1% non-essential amino acid solution (Wako), and 100 µ(micro)g/mL kanamycin (MEIJI), • HuO9 cells, HuO-3N1 cells, SJSA-1 cells, NOS-1 cells, and NOS-10 cells were cultured in 96-well plates using RPMI-1640 medium (Wako) comprising 10% FBS and 100 µ(micro)g/mL kanamycin. • G-292 clone A141B1 (G-292) cells were cultured in 96-well plate using McCoy's 5a medium comprising 10% FBS, • Sa-xeno-147 and Sa-xeno-184 cell lines were developed from patient-derived xenograft tumors and were cultured in collagen-coated dishes with RPMI 1640/Ham's F12 (1:1) medium comprising 15% FBS, 20 mM HEPES, and antibiotic-antimycotic solution (Sigma-Aldrich). Cells were cultured at 37°C and 5% CO2.
Cells were seeded in triplicate in 96-well plates (Greiner) or type I collagen-coated plates (IWAKI) at a density of 2000 cells/well and cultured for at least 24 h. After 72 hours of incubation with any of the 96 compounds of the library of the inhibitors, cells were incubated with CellTiter-Glo reagent (Promega) for 2 minutes on a Titramax 100 plate shaker (Heidolph), and after 10 minutes of equilibration, cell viability assays of each osteosarcoma cell were performed by measuring luminescence using a Tristar LB941 multimode microplate reader (Berthold Technologies). The cell viability was calculated as a ratio of the DMSO control to evaluate their effects on osteosarcoma cell proliferation (n=2).

[12] = test system: topoisomerase; settings: cited from earlier work
[13] = test system: osteosarcoma cell lines; test: IC50 of obatoclax, cell viability (CellTiter-Glo); format: cell-based; settings: Homo sapiens; 11 osteosarcoma cell lines; 72 hours; compared with Cmax; Fig. 4-3
Procedure: In this example, G-292 cells, NY cells, NOS-1 cells, NOS-10 cells, HuO9 cells, SJSA-1 cells, MG-63 cells, HuO-3N1 cells, HOS cells, Sa-xeno-147 cells, and Sa-xeno-184 cells were used as osteosarcoma cell lines, and LC-2/ad cells, H2228 cells, H226 cells, H3122 cells, and A549 cells were used as lung adenocarcinoma cell lines.
After 72 hours from treatment with obatoclax, the cell viability of each cell was measured using the CellTiter-Glo Assay reagent. The IC50 value was calculated using Prism software.

[14] = serum; read-out: maximum concentration of obatoclax in serum (Cmax); cited from earlier work
[15] = BH3 mimetic drug sensitivity, cells with MCL1 amplification, Fig. 4-1

T1 sequence (Q07820 whole entry): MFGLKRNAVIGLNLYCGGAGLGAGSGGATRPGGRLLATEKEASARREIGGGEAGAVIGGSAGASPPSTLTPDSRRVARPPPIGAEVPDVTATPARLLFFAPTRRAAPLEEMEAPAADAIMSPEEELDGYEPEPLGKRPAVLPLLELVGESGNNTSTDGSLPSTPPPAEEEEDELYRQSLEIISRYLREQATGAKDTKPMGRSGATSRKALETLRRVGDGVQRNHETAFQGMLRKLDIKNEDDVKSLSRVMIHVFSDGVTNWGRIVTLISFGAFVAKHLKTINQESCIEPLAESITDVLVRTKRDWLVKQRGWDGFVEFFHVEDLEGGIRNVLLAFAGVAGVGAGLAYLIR

Cc1nn(C)c(COc2ccc(N3CCN(S(=O)(=O)N(C)C)CC3)cc2)c1-c1cccc2c(CCCOc3cccc4ccccc34)c(C(=O)O)n(CCN3CCOCC3)c12 [A-1210477]
selectivity than other Bcl-2 family members [1]: ≥ 100 fold

Cc1c(-c2ccc(N3CCc4cccc(C(=O)Nc5nc6ccccc6s5)c4C3)nc2C(=O)O)cnn1CC12CC3CC(CC(C3)C1)C2 [A-1331852]
cell viability ([2]; A-1331852 alone, Fig. 3-5, Fig. 3-6): almost no effect on reduction of cell viability | cell viability ([2]; A-1331852 in combination with AZD5991, Fig. 3-5): strong effect on reduction of cell viability | cell viability ([2]; A-1331852 in combination with MIK665, Fig. 3-6): strong effect on reduction of cell viability | cell viability [3]: most effective in reducing cell viability

COc1cc(N2CCC(N)CC2)ccc1Nc1ncc(Cl)c(-c2c[nH]c3ccccc23)n1 [AZD3463]
IC50 value ([4]; 72 hours): significantly reduced | growth inhibitory effect ([4]; 72 hours): enhanced

Cc1c2c(nn1C)CSCc1cc(n(C)n1)CSc1cc(c3ccccc3c1)OCCCc1c(C(=O)O)n(C)c3c-2c(Cl)ccc13 [AZD5991]
cell viability [5]: moderate inhibitory effects | cell viability ([4]; AZD5991 combined with 3 µM Navitoclax, 72 hours, Fig. 4-2): increased the inhibitory effect on cell viability | cell viability [4, 15]: reduce cell viability at relatively low concentrations | cell viability [6]: reduce cell viability at relatively low concentrations

[NH2][Pt]([NH2])([Cl])[Cl] [CDDP, cisplatin]
IC50 values [5]: not decreased | IC50 values ([4]; 72 hours): not decreased

COc1cccc2c1C(=O)c1c(O)c3c(c(O)c1C2=O)C[C@@](O)(C(=O)CO)C[C@@H]3O[C@H]1C[C@H](N)[C@H](O)[C@H](C)O1 [DOX, Doxorubicin]
IC50 values [5]: not decreased | IC50 values ([4]; 72 hours): not decreased

CN(Cc1cnc2nc(N)nc(N)c2n1)c1ccc(C(=O)N[C@@H](CCC(=O)O)C(=O)O)cc1 [MTX, methotrexate]
IC50 values [5]: not decreased | IC50 values ([4]; 72 hours): not decreased

O=C(c1ccccc1O)c1[nH]c(Cl)c(Cl)c1-n1c(C(=O)c2ccccc2O)cc(Cl)c1Cl [Marinopyrrole A]
binding to Mcl-1 [7]: bind to Mcl-1 | binding to BCL-XL [8]: not to Bcl-XL

C[C@]1(O)C[C@@H](c2nc(-c3ccc4ccc(-c5ccccc5)nc4c3)c3c(N)nccn32)C1 [OSI906]
tumor growth [9]: little effect on tumor growth | IC50 value ([4]; 72 hours): significantly reduced | growth inhibitory effect ([4]; 72 hours): enhanced

Cc1c(-c2c(-c3ccc(F)o3)sc3ncnc(O[C@H](Cc4ccccc4OCc4ccnn4CC(F)(F)F)C(=O)O)c23)ccc(OCCN2CCN(C)CC2)c1Cl [S63845]
binding to BCL-XL [8]: not to bind | binding to BCL-2 [10]: not to bind

CCc1c2c(nc3ccc(O)cc13)-c1cc3c(c(=O)n1C2)COC(=O)[C@]3(O)CC [SN-38]
osteosarcoma cell proliferation (cell viability) [11]: extensive inhibition of osteosarcoma cell proliferation | activity relative to irinotecan [12]: 1000 times

Cc1cc(OCCCc2c3n(c4c(-c5c(C)nn(C)c5C)c(Cl)ccc24)[C@H](C)CN(c2cn(C)c4ccc(C(=O)O)cc24)C3=O)cc(C)c1Cl [VU661013]
inhibition of BCL-xL [8]: does not significantly inhibit | inhibition of BCL-2 [10]: does not significantly inhibit

CC(C)C[C@H](NC(=O)[C@H](Cc1ccccc1)NC(=O)c1cnccn1)B(O)O [bortezomib]
osteosarcoma cell proliferation (cell viability) [11]: extensive inhibition of osteosarcoma cell proliferation

CC(C)C[C@H](NC(=O)[C@H](CCc1ccccc1)NC(=O)CN1CCOCC1)C(=O)N[C@@H](Cc1ccccc1)C(=O)N[C@@H](CC(C)C)C(=O)[C@@]1(C)CO1 [carfilzomib]
osteosarcoma cell proliferation (cell viability) [11]: extensive inhibition of osteosarcoma cell proliferation

COC1=CC(c2cc3ccccc3[nH]2)=N/C1=C\c1[nH]c(C)cc1C [obatoclax]
IC50 [13]: < 176 nM | Cmax [14]: 176 nM

MIK665
cell viability [5]: moderate inhibitory effects | cell viability [4, 15]: reduce cell viability at relatively low concentrations | cell viability ([4]; low concentrations of MIK665 (range 0-30000 nM), 72 hours, compared to MG-63 cells without MCL1 amplification, Fig. 2): reduced cell viability | cell viability [6]: reduce cell viability at relatively low concentrations
